Measurements as given in PubChem BioAssay AID1845216 (Molecular Pharmacology Branch, DTP, NCI, 2023).

System: SW 982 tumor spheroid viability
Experiment: Anticancer human tumor SW 982 cell line growth inhibition;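 note: spheroids exposed to compound for 7 days before readout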
Conditions: spheroids with HUVEC and MSC; for IC50: curve of first compound; for viability, T/C: stronger effect = lower value
How it was run: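 Complex tumor spheroids combined malignant cells with endothelial cells and mesenchymal stem cells. DNA-damaging drugs and DNA repair inhibitors were tested alone and in combination, at half-log dilutions down from clinical Cmax (top 10 microM if Cmax unknown), 0.25% DMSO final.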

[1] = second compound 0.003 µM, first compound 0.0316 µM
[2] = second compound 0.003 µM, first compound 0.1 µM
[3] = second compound 0.003 µM, first compound 0.316 µM
[4] = second compound 0.003 µM, first compound 1 µM
[5] = second compound 0.003 µM, first compound 3.16 µM
[6] = second compound 0.003 µM, first compound 10 µM
[7] = second compound 0.00949 µM, first compound 0.0316 µM
[8] = second compound 0.00949 µM, first compound 0.1 µM
[9] = second compound 0.00949 µM, first compound 0.316 µM
[10] = second compound 0.00949 µM, first compound 1 µM
[11] = second compound 0.00949 µM, first compound 3.16 µM
[12] = second compound 0.00949 µM, first compound 10 µM
[13] = second compound 0.03 µM, first compound 0.0316 µM
[14] = second compound 0.03 µM, first compound 0.1 µM
[15] = second compound 0.03 µM, first compound 0.316 µM
[16] = second compound 0.03 µM, first compound 1 µM
[17] = second compound 0.03 µM, first compound 3.16 µM
[18] = second compound 0.03 µM, first compound 10 µM
[19] = second compound 0.0949 µM, first compound 0.0316 µM
[20] = second compound 0.0949 µM, first compound 0.1 µM
[21] = second compound 0.0949 µM, first compound 0.316 µM
[22] = second compound 0.0949 µM, first compound 1 µM
[23] = second compound 0.0949 µM, first compound 3.16 µM
[24] = second compound 0.0949 µM, first compound 10 µM
[25] = second compound 0.3 µM, first compound 0.0316 µM
[26] = second compound 0.3 µM, first compound 0.1 µM
[27] = second compound 0.3 µM, first compound 0.316 µM
[28] = second compound 0.3 µM, first compound 1 µM
[29] = second compound 0.3 µM, first compound 3.16 µM
[30] = second compound 0.3 µM, first compound 10 µM

Work on `CC(C)n1c(=O)n(C)c2cnc3cc(F)c(-c4ccc(OCCCN5CCCCC5)nc4)cc3c21` + CC[C@@]1(O)C(=O)OCc2c1cc1n(c2=O)Cc2cc3c(CN(C)C)c(O)ccc3nc2-1 yielded an IC50 (second compound 0.003 µM) of 1570 nM, an IC50 (second compound 0.00949 µM) of 1530 nM and an IC50 (second compound 0.03 µM) of 952 nM. For the same compound, the IC50 (second compound 0.0949 µM) was 513 nM, the IC50 (second compound 0.3 µM) was 76.8 nM and the viability, T/C [1] was 80.2%. For the same compound, the viability, T/C [2] was 77%, the viability, T/C [3] was 78.9% and the viability, T/C [4] was 62.5%. It also gave a viability, T/C [5] of 30.2%, a viability, T/C [6] of 20.3% and a viability, T/C [7] of 71.6%. For the same compound, the viability, T/C [8] was 79.7%, the viability, T/C [9] was 64% and the viability, T/C [10] was 61.4%. For the same compound, the viability, T/C [11] was 34.4%, the viability, T/C [12] was 18.4% and the viability, T/C [13] was 71.6%. The viability, T/C [14] was 81%, the viability, T/C [15] was 59.4% and the viability, T/C [16] was 53.6%. The viability, T/C [17] was 25.1%, the viability, T/C [18] was 17.1% and the viability, T/C [19] was 72.6%. It also gave a viability, T/C [20] of 65.5%, a viability, T/C [21] of 58.6% and a viability, T/C [22] of 39.3%. It also gave a viability, T/C [23] of 24.9%, a viability, T/C [24] of 15.9% and a viability, T/C [25] of 56.4%. It also gave a viability, T/C [26] of 46.2%, a viability, T/C [27] of 40.8% and a viability, T/C [28] of 30%. The viability, T/C [29] was 18.6% and the viability, T/C [30] was 14.5%.

Work on `COc1ccc([C@@H](O)c2cc(-c3ncnc4cc(N5CCOCC5)ccc34)c(F)cc2Cl)nn1` + CC[C@@]1(O)C(=O)OCc2c1cc1n(c2=O)Cc2cc3c(CN(C)C)c(O)ccc3nc2-1 yielded an IC50 (second compound 0.003 µM) of 4470 nM, an IC50 (second compound 0.00949 µM) of 2150 nM and an IC50 (second compound 0.03 µM) of 1190 nM. For the same compound, the IC50 (second compound 0.0949 µM) was 524 nM, the IC50 (second compound 0.3 µM) was 130 nM and the viability, T/C [1] was 96.9%. It also gave a viability, T/C [2] of 95.5%, a viability, T/C [3] of 92.1% and a viability, T/C [4] of 90.9%. It also gave a viability, T/C [5] of 59.8%, a viability, T/C [6] of 27.1% and a viability, T/C [7] of 86.4%. For the same compound, the viability, T/C [8] was 78.5%, the viability, T/C [9] was 80.7% and the viability, T/C [10] was 72.2%. It also gave a viability, T/C [11] of 38.9%, a viability, T/C [12] of 15% and a viability, T/C [13] of 73.8%. For the same compound, the viability, T/C [14] was 76.2%, the viability, T/C [15] was 70.3% and the viability, T/C [16] was 53.9%. It also gave a viability, T/C [17] of 26.8%, a viability, T/C [18] of 12.8% and a viability, T/C [19] of 70.6%. The viability, T/C [20] was 68.8%, the viability, T/C [21] was 60.5% and the viability, T/C [22] was 36.6%. The viability, T/C [23] was 18.5%, the viability, T/C [24] was 12.8% and the viability, T/C [25] was 52.2%. The viability, T/C [26] was 55.7%, the viability, T/C [27] was 40.6% and the viability, T/C [28] was 23.2%. For the same compound, the viability, T/C [29] was 13.1% and the viability, T/C [30] was 10.2%.

In the case of `O=C(c1cc(Cc2n[nH]c(=O)c3ccccc23)ccc1F)N1CCN(C(=O)C2CC2)CC1` + COc1cc2c(cc1O)CCNC21CSC2c3c(OC(C)=O)c(C)c4c(c3C(COC1=O)N1C(O)C3Cc5cc(C)c(OC)c(O)c5C(C21)N3C)OCO4, the IC50 (second compound 30 pM) is reported as 7800 nM, the IC50 (second compound 94.9 pM) is reported as 16300 nM and the IC50 (second compound 0.0003 µM) is reported as 7270 nM. For the same compound, the IC50 (second compound 0.000949 µM) was less than 94.9 nM, the IC50 (second compound 0.003 µM) was less than 94.9 nM and the viability, T/C (second compound 30 pM, first compound 0.0949 µM) was 96.8%. It also gave a viability, T/C (second compound 30 pM, first compound 0.3 µM) of 93.2%, a viability, T/C (second compound 30 pM, first compound 0.949 µM) of 97.8% and a viability, T/C (second compound 30 pM, first compound 3 µM) of 71.7%. The viability, T/C (second compound 30 pM, first compound 9.49 µM) was 47.4%, the viability, T/C (second compound 30 pM, first compound 30 µM) was 38.8% and the viability, T/C (second compound 94.9 pM, first compound 0.0949 µM) was 93.1%. The viability, T/C (second compound 94.9 pM, first compound 0.3 µM) was 91.4%, the viability, T/C (second compound 94.9 pM, first compound 0.949 µM) was 92.6% and the viability, T/C (second compound 94.9 pM, first compound 3 µM) was 76.2%. It also gave a viability, T/C (second compound 94.9 pM, first compound 9.49 µM) of 59.8%, a viability, T/C (second compound 94.9 pM, first compound 30 µM) of 39.9% and a viability, T/C (second compound 0.0003 µM, first compound 0.0949 µM) of 74.4%. It also gave a viability, T/C (second compound 0.0003 µM, first compound 0.3 µM) of 80.7%, a viability, T/C (second compound 0.0003 µM, first compound 0.949 µM) of 70.5% and a viability, T/C (second compound 0.0003 µM, first compound 3 µM) of 70.8%. For the same compound, the viability, T/C (second compound 0.0003 µM, first compound 9.49 µM) was 43.8%, the viability, T/C (second compound 0.0003 µM, first compound 30 µM) was 28.1% and the viability, T/C (second compound 0.000949 µM, first compound 0.0949 µM) was 32.8%. For the same compound, the viability, T/C (second compound 0.000949 µM, first compound 0.3 µM) was 27.3%, the viability, T/C (second compound 0.000949 µM, first compound 0.949 µM) was 26.8% and the viability, T/C (second compound 0.000949 µM, first compound 3 µM) was 18.3%. It also gave a viability, T/C (second compound 0.000949 µM, first compound 9.49 µM) of 11.1%, a viability, T/C (second compound 0.000949 µM, first compound 30 µM) of 2.5% and a viability, T/C (second compound 0.003 µM, first compound 0.0949 µM) of 0.52%. For the same compound, the viability, T/C (second compound 0.003 µM, first compound 0.3 µM) was 0.45%, the viability, T/C (second compound 0.003 µM, first compound 0.949 µM) was 0.51% and the viability, T/C (second compound 0.003 µM, first compound 3 µM) was 0.63%. For the same compound, the viability, T/C (second compound 0.003 µM, first compound 9.49 µM) was 0.83% and the viability, T/C (second compound 0.003 µM, first compound 30 µM) was 1.26%.
